This passage reports mass density and activity coefficient results from the NIST ThermoML archive (doi:10.1021/je500050p).

For series [1] the following is noted: 101.33 kPa, Liquid, Vibrating tube method.
Series [2] in a line: activity coefficient (dimensionless); of the first substance listed, at infinite dilution; xn = mol fraction of the nth substance listed. Particulars: 101 kPa, Liquid, Chromatography, x1 = 0.

± gives the expanded uncertainty stated by the source.

In the case of `CC1(C)[C@@H]2CC[C@@]1(CS(=O)(=O)[O-])C(=O)C2.CCCCCCCCCCCCCC[N+](CCCCCC)(CCCCCC)CCCCCC`, the mass density in series [1] (298.55 K) is reported as 963.8 ± 0.3 kg/m3; in series [1] (313.45 K) it was 953.4 ± 0.3 kg/m3; in series [1] (323.45 K) it was 946.1 ± 0.3 kg/m3; in series [1] (333.25 K), 939.1 ± 0.3 kg/m3.

On to `Cc1ccc(C)cc1` [1,4-dimethylbenzene] + CC1(C)[C@@H]2CC[C@@]1(CS(=O)(=O)[O-])C(=O)C2.CCCCCCCCCCCCCC[N+](CCCCCC)(CCCCCC)CCCCCC, for which the figures for the activity coefficient in series [2] (323.15 K), in series [2] (333.15 K) and in series [2] (343.15 K) were 0.51 ± 0.04, 0.8 ± 0.1 and 1.17 ± 0.07, respectively.

For the compound `CCOCC` [diethyl ether] + CCCCCCCCCCCCCC[N+](CCCCCC)(CCCCCC)CCCCCC.C[C@H](O)C(=O)[O-], the activity coefficient in series [2] (323.15 K) turned out to be 0.84 ± 0.05; in series [2] (353.15 K), 0.79 ± 0.05; in series [2] (373.15 K), 0.77 ± 0.05.

For the compound `CCCCCCCCCCCCCC[N+](CCCCCC)(CCCCCC)CCCCCC.C[C@H](O)C(=O)[O-]` [N,N,N-trihexyl-1-tetradecanaminium (2S)-2-hydroxypropanoate], the mass density in series [1] (298.55 K) is recorded as 894.8 ± 0.3 kg/m3; in series [1] (313.45 K), 885.7 ± 0.3 kg/m3; in series [1] (323.45 K), 879.9 ± 0.3 kg/m3; in series [1] (333.25 K), 874.5 ± 0.3 kg/m3.

Consider `c1ccncc1` [pyridine] + CCCCCCCCCCCCCC[N+](CCCCCC)(CCCCCC)CCCCCC.C[C@H](O)C(=O)[O-], for which the activity coefficient in series [2] (323.15 K), in series [2] (353.15 K) and in series [2] (373.15 K) was 0.34 ± 0.03 in each case.

As for `CCCCO` [butan-1-ol] + CC1(C)[C@@H]2CC[C@@]1(CS(=O)(=O)[O-])C(=O)C2.CCCCCCCCCCCCCC[N+](CCCCCC)(CCCCCC)CCCCCC, the activity coefficient is 0.09 ± 0.03 in series [2] (323.15 K), 0.15 ± 0.03 in series [2] (333.15 K) and 0.27 ± 0.03 in series [2] (343.15 K).

For `CCCCCCCCC` [nonane] + CC1(C)[C@@H]2CC[C@@]1(CS(=O)(=O)[O-])C(=O)C2.CCCCCCCCCCCCCC[N+](CCCCCC)(CCCCCC)CCCCCC, the activity coefficient in series [2] (323.15 K) is 1.5 ± 0.1; in series [2] (333.15 K), 2.26 ± 0.15; in series [2] (343.15 K) it was 3.24 ± 0.22.

Turning to `Cc1ccccc1C` [1,2-dimethylbenzene] + CC1(C)[C@@H]2CC[C@@]1(CS(=O)(=O)[O-])C(=O)C2.CCCCCCCCCCCCCC[N+](CCCCCC)(CCCCCC)CCCCCC, the results for the activity coefficient in series [2] (323.15 K), in series [2] (333.15 K) and in series [2] (343.15 K) were 0.49 ± 0.04, 0.77 ± 0.05 and 1.13 ± 0.07, respectively.

As for `CCCCCCC` [heptane] + CCCCCCCCCCCCCC[N+](CCCCCC)(CCCCCC)CCCCCC.C[C@H](O)C(=O)[O-], the activity coefficient in series [2] (323.15 K) came out at 1.22 ± 0.08; in series [2] (353.15 K) it was 1.17 ± 0.07; in series [2] (373.15 K) it was 1.16 ± 0.07.

As to `CC#N` [acetonitrile] + CCCCCCCCCCCCCC[N+](CCCCCC)(CCCCCC)CCCCCC.C[C@H](O)C(=O)[O-], the activity coefficient was found to be 0.45 ± 0.04 in series [2] (323.15 K), 0.44 ± 0.04 in series [2] (353.15 K) and 0.43 ± 0.04 in series [2] (373.15 K).

`CCO` [ethanol] + CC1(C)[C@@H]2CC[C@@]1(CS(=O)(=O)[O-])C(=O)C2.CCCCCCCCCCCCCC[N+](CCCCCC)(CCCCCC)CCCCCC: the activity coefficient in series [2] (323.15 K) was 0.1; in series [2] (333.15 K), 0.17 ± 0.03; in series [2] (343.15 K) it was 0.26 ± 0.03.

As to `Cc1ccccc1C` [1,2-dimethylbenzene] + CCCCCCCCCCCCCC[N+](CCCCCC)(CCCCCC)CCCCCC.C[C@H](O)C(=O)[O-], the activity coefficient in series [2] (323.15 K) was 0.53 ± 0.04; in series [2] (353.15 K), 0.55 ± 0.04; in series [2] (373.15 K), 0.58 ± 0.04.

For orientation: mass density means mass per unit of volume.
